According to patent publication US20080312129A1, “Use of Mas G-Protein-Coupled Receptor Agonists and Antagonists, as Apoptotic-Activity Modulators for Study, Prevention and Treatment of Diseases” (priority 2005, published 2008):

Experiments:
[1] = system: CHO cells transfected with the Mas receptor (CHO-Mas); experiment: Western blot, phosphorylation of kinase B (Akt) in CHO-Mas cells; type: cell-based; settings: FIG. 10
Method: (§1) CHO cells transfected with the Mas receptor (CHO-Mas) and human endothelial cells of the thoracic aorta (HAEC) were cultured until confluence of approximately 80% and processed with a lise buffer for Western blotting. After the processing, the protein concentration was determined and the lisates were subjected to electrophoresis in polyacrylamide/SDS gel and then subjected to transfer to the nitrocellulose membrane. The membranes were incubated with specific antibodies (anti-phospho-Akt, anti-Akt, anti-phospho-eNOS and anti-β-actin). The bands were viewed after development by chemoluminescence.

[2] = system: CHO cells transfected with the Mas receptor (CHO-Mas); experiment: Western blot, phosphorylation of eNOS stimulatory site (S1177) in CHO-Mas cells; type: cell-based; settings: FIG. 11
Method: as §1

[3] = system: human endothelial cells of the thoracic aorta (HAEC); experiment: Western blot, phosphorylation of kinase B (Akt) in HAEC; type: cell-based; settings: FIG. 12
Method: as §1

[4] = system: human endothelial cells of the thoracic aorta (HAEC); experiment: Western blot, phosphorylation of eNOS stimulatory site (S1177) in HAEC; type: cell-based; settings: FIG. 13
Method: as §1

awake Wistar rats = experiment: Vasodilating action of acetylcholine (blood pressure) in awake rats; type: in vivo, rat; settings: endovenous infusion 7.0 pmol/min, n=9, FIG. 14B
Method: Wistar rats were subjected, 24 hours before the experiments, to surgical implantation of catheters into the femoral artery (for analysis of blood pressure and heart rate), femoral vein (for injection and infusion of drugs) and left carotid artery (for injection of drugs). The records of blood pressure and heart rate were obtained through a data acquisition system connected to a microcomputer (BIOPAC System, INc.). […] In none of the groups did we observe any alterations in the baroreflex.

[5] = system: human aorta endothelial cells (HAEC); experiment: Western blot, phosphorylation of c-SRC stimulated by Ang II in HAEC; type: cell-based; settings: FIG. 15, 4 experiments, b15 words it as inhibiting c-SRC
Method: (§2) In order to quantify the activity of the NAD(P)H Oxtidase, human aorta endothelial cells (HAEC) were stimulated with angiotensin II (10^−7M) for 10 minutes. In some experiments, the cells were pre-exposed to the AT1 receptor antagonist Ibesartan (10^−5M), for 30 minutes or to Ang-(1-7) (10^−7 M) for 15 minutes. The chemoluminescence derived from lucigenin was used to determine the activity of NAD(P)H oxidase in the homogenate of the cells. In order to quantify the modulation of Ang-(1-7) in the phosphorylation of c-SRC, the HAECs were cultured until confluence of about 80% was reached and processed with lise buffer for Western blotting. After the processing, the protein concentration was determined and the lisates were subjected to gel electroforesis of polyacrylamide/SDS and then to the transfer to nitrocellulose membrane. The membranes were incubated with specific antibodies (anti-phospho-c-SRC, anti-c-SRC). The bands were visualized after development by chemoluminescency. […] In some experiments the cells were pre-incubated with Ibesartan (10^−5 M, 30 min). Data are presented with an average±EPM of 4 experiments. *p<0.05 vs control.+p<0.05 vs Ang II+Ang (1-7).

NAD(P)H oxidase = NAD(P)H oxidase activity in HAEC homogenate, lucigenin chemoluminescence; type: cell-based, human; settings: HAEC stimulated by Ang II 10^-7 M 10 min; Ang-(1-7) 10^-7 M 15 min pre-incubation; FIG. 16; direction stated only
Method: as §2

C57 mice = experiment: Testis histology (apoptosis) and gonadosomatic index after 14-day osmotic mini-pump infusion; type: in vivo, mouse; settings: 2.5 μg/h s.c. mini-pump, 14 days, n=5, FIG. 17
Method: Osmotic mini-pumps (ALZET, model 2002) containing the Mas G-protein-coupled receptor antagonist, A-779 (2.5 μg/h, 14 days, n=5) or carrier (NaCl 0.9%, 1 μl/h, 14 days, n=6) were implanted subscutaneously into the dorsal region of C57 mice under anesthesia with tribromoethanol (2.5%, 1 ml/100 g of body weight). After this period, the animals were weigh and then injected, by intraperitoneal route, with heparin at the concentration of 125 Ul/kg of body weight. After fifteen minutes, these animals were sedated with sodium thiopental (50 mg/kg of body weight) and perfused through the left ventricle. In a first step, it was carried out the washing of the vascular bed with a 0.9% saline solution, under a pressure of approximately 80 mmHg, for about 5 minutes, at room temperature. Immediately after this procedure, the animals were perfused with a 4% glutaraldehyde fixing solution in a phosphate buffer (0.05M, pH 7.2-7-4) for about 25 minutes. After this step, the testicles were removed and separated from the respective epididymis and weighed. From the testicular and body weights, one estimated the gonadosomatic index (percentage relation between the testicular weight and the body weight) for each animal. For the microscopic analyses, fragments of the testis up to about 3 mm thick were collected, which were dipped into glutaraldehyde buffered at 4% for two to four hours, at 4° C. […]

activity of NAD(P)H oxidase (NAD(P)H oxidase)	Substance	phosphorylation of kinase B (Akt) [1]	phosphorylation of the stimulatory site of endothelial nitric oxide synthase (S1177) [2]	phosphorylation of kinase B (Akt) [3]	phosphorylation of the stimulatory site of eNOS (S1177) [4]	effect on the vasodilating action of acetylcholine (ACh) (awake Wistar rats)	effect on phosphorylation of c-SRC stimulated by Ang II [5]	effect on Ang-(1-7)-stimulated phosphorylation of kinase B (Akt) [1]	effect on Ang-(1-7)-stimulated phosphorylation of kinase B (Akt) [3]	gonadosomatic index (testicular weight / body weight, percentage) versus control group (C57 mice)	number of apoptosis per transverse section of testis versus control group (C57 mice)
inhibits the activity of NAD(P)H oxidase	Angiotensin-(1-7) [Ang-(1-7)]	stimulation	stimulated	stimulatory effect	stimulated	potentiates the vasodilating action of acetylcholine	modulating effect	–	–	–	–
–	Asp^1-Arg^2-Val^3-Tir^4-Lle^5-His^6-D-Ala^7 [A-779, reference compound]	–	–	–	–	–	–	blocked this effect	blocked this effect	there was not different	larger number of apoptosis per transverse section
